Assay results taken from patent publication US20200085868A1, “Method For Treating Cancer” (China Medical University Hospital, priority 2018, published 2020).
“Also recorded” adds a separate entry of the source.

Experiments:
Type in all cases: cell-based
[1] = test system: HLA-G expression of the human ovarian cancer cell line SKOV3; assay: HLA-G expression of tumor cells treated with chemotherapy drug, flow cytometry; details: SKOV3, carboplatin 20 μM, 48 hours; control 14.69%
Description: (§1) The human ovarian cancer cell line SKOV3 is cultured in McCoy's 5A culture medium containing 10% FBS.
(§2) First, the human breast cancer cell line MDA-MB-231, the human malignant brain tumor cell line DBTRG, the human pancreatic cancer cell line AsPC1 and the human ovarian cancer cell line SKOV3 are seeded in a 6-well plate at a density of 2×10^5 cells/well. The cells are subsequently incubated for 24 hours. […] In a control, the tumor cells are untreated.
(§3) Please refer to FIGS. 2A, 2B, 2C, 2D and 2E, which are analytical results of flow cytometry showing a HLA-G expression of tumor cells treated with a chemotherapy drug. FIG. 2A is analytical result of flow cytometry of the human breast cancer cell line MDA-MB-231. FIG. 2B is analytical result of flow cytometry of the human malignant brain tumor cell line DBTRG. FIG. 2C is analytical result of flow cytometry of the human pancreatic cancer cell line AsPC1. FIG. 2D is analytical result of flow cytometry of the human ovarian cancer cell line SKOV3. FIG. 2E is a statistical chart of FIGS. 2A, 2B, 2C and 2D.

[2] = test system: human ovarian cancer cell line SKOV3; assay: Tumor cell death (cytotoxicity), Annexin V-FITC and PI staining, flow cytometry; details: group 1: chemotherapy drug alone, carboplatin 20 μM; control less than 10%
Description: (§4) First, the human breast cancer cell line MDA-MB-231, the human malignant brain tumor cell line DBTRG, the human pancreatic cancer cell line AsPC1 and the human ovarian cancer cell line SKOV3 are seeded in a 12-well plate at a density of 1×10^5 cells/well. The cells are subsequently incubated for 24 hours. Each type of the tumor cells is divided into six groups. In a control, the tumor cells are untreated. In a group 1, the tumor cells are treated with the chemotherapy drug. In a group 2, the tumor cells are treated with the parental NK-92 cell line. In a group 3, the tumor cells are treated with the parental NK-92 cell line and the chemotherapy drug. In the groups 2 and 3, the number of the parental NK-92 cell line treated is 1×10^5 cells. In a group 4, the tumor cells are treated with the chimeric antigen receptor expressing cell of Example 1. […] The treated cells are stained with Annexin V-FITC and propidium iodide (PI), and the apoptosis and the death of the tumor cells are detected by the flow cytometry. The sum of the percentage of cells stained with Annexin V-FITC and/or PI (that is the percentage of cells in the first quadrant, the second quadrant, and the fourth quadrant of the bivariate flow cytometry scatter plot) are calculated to obtain the cytotoxicity. The results of the cytotoxicity are counted after the three independent trials in each group. […]

[3] = test system: HLA-G expression level on the plasma membrane of the human ovarian cancer cell line SKOV3; assay: HLA-G expression level of tumor cells treated with chemotherapy drug, immunofluorescence staining assay; details: SKOV3, carboplatin 20 μM, 48 hours, vs untreated control
Description: (§5) To investigate effect of the treatment of the chemotherapy drug on the tumor cells, the tumor cells are treated with the chemotherapy drug, and then detecting the HLA-G expression level of the tumor cells.
(§6) The tumor cells used are human breast cancer cell line MDA-MB-231, human malignant brain tumor cell line DBTRG-05MG (hereinafter referred to as DBTRG), human pancreatic cancer cell line AsPC1, and human ovarian cancer cell line SKOV3. The tumor cell lines used are all purchased from the American Type Culture Collection (ATCC). The human breast cancer cell line MDA-MB-231 is a triple-negative breast cancer cell line, that is, the hormone receptor (ER, PR) and HER-2 receptor thereof are negative, and the human breast cancer cell line MDA-MB-231 is cultured in RPMI culture medium containing 10% fetal bovine serum (FBS). The human malignant brain tumor cell line DBTRG is cultured in DMEM culture medium containing 10% FBS. […]
(§7) First, the human breast cancer cell line MDA-MB-231, the human malignant brain tumor cell line DBTRG, the human pancreatic cancer cell line AsPC1 and the human ovarian cancer cell line SKOV3 are seeded in a 6-well plate at a density of 2×10^5 cells/well. […] Then, the HLA-G expression level of the tumor cells are detected by immunofluorescence staining assay and flow cytometry.

[4] = test system: HLA-G expression of the human breast cancer cell line MDA-MB-231; assay: HLA-G expression of tumor cells treated with chemotherapy drug, flow cytometry; details: MDA-MB-231, doxorubicin 200 nM, 48 hours; control 12.27%
Description: as §5, §6, §7

[5] = test system: human breast cancer cell line MDA-MB-231; assay: Tumor cell death (cytotoxicity), Annexin V-FITC and PI staining, flow cytometry; details: group 1: chemotherapy drug alone, doxorubicin 200 nM; control about 10%
Description: (§8) The cells are subsequently incubated for 24 hours. […] In a control, the tumor cells are untreated.
as §8, §8

[6] = test system: HLA-G expression level on the plasma membrane of the human breast cancer cell line MDA-MB-231; assay: HLA-G expression level of tumor cells treated with chemotherapy drug, immunofluorescence staining assay; details: MDA-MB-231, doxorubicin 200 nM, 48 hours, vs untreated control
Description: as §5, §6, §7

[7] = test system: HLA-G expression of the human pancreatic cancer cell line AsPC1; assay: HLA-G expression of tumor cells treated with chemotherapy drug, flow cytometry; details: AsPC1, gemcitabine 20 μM, 48 hours; control 13.18%
Description: as §1, §2, §3

[8] = test system: human pancreatic cancer cell line AsPC1; assay: Tumor cell death (cytotoxicity), Annexin V-FITC and PI staining, flow cytometry; details: group 1: chemotherapy drug alone, gemcitabine 20 μM
Description: as §4

[9] = test system: HLA-G expression of the human malignant brain tumor cell line DBTRG; assay: HLA-G expression of tumor cells treated with chemotherapy drug, flow cytometry; details: temozolomide 80 μg/mL, 48 hours, control 14.01%
Description: as §5, §6, §7

SMILES: N.N.O=C([O-])C1(C(=O)[O-])CCC1.[Pt+2] [carboplatin]
- mean fluorescence intensity (MFI) of HLA-G [1]: 38.58%
- death rate of SKOV3 [2]: increased, but there is no statistically significant difference compared to the control; also recorded: comparable to that of the control
- HLA-G expression level on the plasma membrane [3]: increase

SMILES: COc1cccc2c1C(=O)c1c(O)c3c(c(O)c1C2=O)C[C@@](O)(C(=O)CO)C[C@@H]3O[C@H]1C[C@H](N)[C@H](O)[C@H](C)O1 [doxorubicin]
- mean fluorescence intensity (MFI) of HLA-G [4]: 64.45%
- death rate of MDA-MB-231 [5]: increased, but there is no statistically significant difference compared to the control
- HLA-G expression level on the plasma membrane [6]: increase

SMILES: Nc1ccn([C@@H]2O[C@H](CO)[C@@H](O)C2(F)F)c(=O)n1 [gemcitabine]
- mean fluorescence intensity (MFI) of HLA-G [7]: 41.44%
- death rate of AsPC1 [8]: increased, but there is no statistically significant difference compared to the control; also recorded: comparable to that of the control

SMILES: Cn1nnc2c(C(N)=O)ncn2c1=O [temozolomide]
- mean fluorescence intensity (MFI) of HLA-G [9]: 22.33%
